22 compounds from patent publication US12187684B2, “Benzimidazole derivatives as modulators of retinoid-related orphan receptor gamma (RORγ) and pharmaceutical use thereof” (Jiangsu Hengrui Medicine Co., Ltd., priority 2018, dated 2025) can be followed below.

The subject of test [1] is IL-17 production, human PBMC cells. In words: IL-17 production assay using human PBMC. The conditions noted are these: human PBMC stimulated by cytostim for 3 days, IL-17 ELISA of supernatant. The format is cell-based. The source says: Test Example 2. IL-17 Production Assay Using Human PBMC
• 1. Human PBMC cells (Cat No. 70025.1, Zenbio) • 2. Lymphocyte medium (Cat No. LYMPH-1, Zenbio) • 3. TexMACS (Cat No. 130-097-196, Miltenyi) • 4. Cytostim-human (Cat No. 1130-092-173, Miltenyi) • 5. Human IL-17 ELISA (Cat No. D1700, R&D systems) • 6. Tecan Infinite M1000 plate reader (Tecan)
Experimental Procedure for IL-17 Production Assay
Cryopreserved peripheral blood human mononuclear cells (PBMCs) were rapidly thawed in warmed Lymphocyte media, and centrifuged cell suspension at 1000 rpm for 10 minutes. The supernatant was removed, and the cell pellets were gently resuspended in TexMACS media.
Human PBMC cells in TexMACS media were plated at 1×10^5 each well in triplicate. The test compounds at various concentrations or vehicle control (<0.5% DMSO) were added into cell culture. The cells were stimulated by cytostim (10 μL/mL) for 3 days in a humidified, 5% CO2 incubator at 37° C.
After incubation, the cell culture supernatant was harvested, and then removed particulates by centrifugation. Human IL-17 in the supernatant was measured using human IL-17 ELISA kit according to the manufacturer's protocol. IC50 values were determined using GraphPad Prism by plotting the compounds concentration versus percent inhibition.
(In general: ELISA stands for enzyme-linked immunosorbent assay.)

The target in test [2] is T1, RORγ LBD-GST tagged (Homo sapiens, UniProt P51449).
T1 construct: RORγ LBD-GST tagged (Cat No. RORC-114H, Creative Biomart); purchased Creative Biomart RORC-114H
T1 sequence (P51449 269-508 limits assumed): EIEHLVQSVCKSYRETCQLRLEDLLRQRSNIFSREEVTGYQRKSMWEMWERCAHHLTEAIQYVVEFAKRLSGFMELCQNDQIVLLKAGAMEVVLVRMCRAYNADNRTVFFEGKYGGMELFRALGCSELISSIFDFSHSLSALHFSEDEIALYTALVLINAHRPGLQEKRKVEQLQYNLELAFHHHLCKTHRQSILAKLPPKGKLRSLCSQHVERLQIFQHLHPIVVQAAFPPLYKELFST
As to the kind of experiment: LanthaScreen TR-FRET RORγ coactivator assay. Format: biochemical. The conditions noted are these: Fluorescein-D22 coactivator peptide, 1 hour room temperature. In a few lines: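 GST-tagged RORγ LBD (25 ng/reaction) was incubated in coregulator buffer D with 5 mM DTT and compound (top 3 μM, 7-fold steps, 7 doses), then with a mix containing 0.6 μM fluorescein-D22 peptide and 8 nM Tb anti-GST antibody. After 1 h at room temperature in the dark, 520/495 nm TR-FRET was read. IC50 came from log concentration versus percent inhibition.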
A general note: Time-resolved FRET reads energy transfer from a long-lived donor to a nearby acceptor.

SMILES strings stand for the structures.

Broadly, the IC50 is the concentration that inhibits the measured activity by half. Lower therefore signals higher potency. Consider `CCS(=O)(=O)c1ccc(C(CC(N)=O)c2nc3c(Cl)c(N4CCC(F)(F)CC4)c(Cl)cc3[nH]2)cc1` (single isomer, unassigned) [the shorter retention time of 146 and 147] [3-(4,6-dichloro-5-(4,4-difluoropiperidin-1-yl)-1H-benzo[d]imidazol-2-yl)-3-(4-(ethylsulfonyl)phenyl)propanamide], for which the IC50 in test [1] worked out at 0.315 µM.
As to `O=S(=O)(CC1CC1)c1ccc(Cc2nc3c(Cl)c(-c4ccccc4OC(F)(F)F)c(Cl)cc3[nH]2)c(F)c1` [Example 80, 4,6-dichloro-2-(4-((cyclopropylmethyl)sulfonyl)-2-fluorobenzyl)-5-(2-(trifluoromethoxy)phenyl)-1H-benzo[d]imidazole], the IC50 in test [2] was determined as 0.031 µM; in test [1] (Homo sapiens, PBMC, 72 h), 0.013 µM.
For `COc1ccccc1-c1c(Cl)cc2nc(C(CO)c3ccc(S(=O)(=O)CC4CC4)cc3)[nH]c2c1Cl` (stereo not drawn) [Example 135, 2-(4-((cyclopropylmethyl)sulfonyl)phenyl)-2-(5,7-dichloro-6-(2-methoxyphenyl)-1H-benzo[d]imidazol-2-yl)ethanol], the IC50 in test [2] was 0.039 µM; in test [1] (Homo sapiens, PBMC, 72 h), 0.014 µM.
For the compound `O=S(=O)(CC1CC1)c1ccc(Cc2nc3cc(Cl)c(N4CCC(F)(F)CC4)c(Cl)c3[nH]2)cc1` [Example 127, 5,7-dichloro-2-(4-((cyclopropylmethyl)sulfonyl)benzyl)-6-(4,4-difluoropiperidin-1-yl)-1H-benzo[d]imidazole], the IC50 in test [2] worked out at 0.22 µM; in test [1] (Homo sapiens, PBMC, 72 h), 0.013 µM.
On the same counts, the results for `O=S(=O)(CC1CC1)c1ccc(C(O)c2nc3c(Cl)c(-c4ccccc4OC(F)(F)F)c(Cl)cc3[nH]2)cc1` (stereo not drawn) [Example 68, (4-((cyclopropylmethyl)sulfonyl)phenyl)(4,6-dichloro-5-(2-(trifluoromethoxy)phenyl)-1H-benzo[d]imidazol-2-yl)methanol] are 0.03 µM and 0.004 µM.
For `CCS(=O)(=O)c1ccc(C(CO)c2nc3c(Cl)c(-c4ccccc4OC(F)F)c(Cl)cc3[nH]2)cc1` (stereo not drawn) [Example 29, 2-(4,6-dichloro-5-(2-(difluoromethoxy)phenyl)-1H-benzo[d]imidazol-2-yl)-2-(4-(ethylsulfonyl)phenyl)ethanol] the same measures were 0.269 µM and 0.009 µM.
For `CCOc1ccccc1-c1c(Cl)cc2nc(C(O)c3ccc(S(=O)(=O)CC4CC4)cc3)[nH]c2c1Cl` (stereo not drawn) [Example 138, (4-((cyclopropylmethyl)sulfonyl)phenyl)(5,7-dichloro-6-(2-ethoxyphenyl)-1H-benzo[d]imidazol-2-yl)methanol] the same measures were 0.018 µM and 0.009 µM.
`O=S(=O)(CC1CC1)c1ccc(C(CCO)c2nc3cc(-c4ccccc4OC(F)F)c(Cl)cc3[nH]2)cc1` (single isomer, unassigned) [the longer retention time of 155 and 156, 3-(6-chloro-5-(2-(difluoromethoxy)phenyl)-1H-benzo[d]imidazol-2-yl)-3-(4-((cyclopropylmethyl)sulfonyl)phenyl)propan-1-ol]: the figures for the IC50 in test [2] and in test [1] were 0.074 µM and 0.026 µM, respectively.
On to `CCS(=O)(=O)c1ccc(Cc2nc3c(Cl)c(-c4ccccc4CCC(F)(F)F)c(Cl)cc3[nH]2)cc1` [Example 34, 4,6-dichloro-2-(4-(ethylsulfonyl)benzyl)-5-(2-(3,3,3-trifluoropropyl)phenyl)-1H-benzo[d]imidazole], for which the IC50 in test [2] was 0.016 µM; in test [1] (Homo sapiens, PBMC, 72 h), 0.049 µM.
On the same counts, the results for `CCS(=O)(=O)c1ccc(Cc2nc3c(Cl)c(-c4ccccc4OCCOC)c(Cl)cc3[nH]2)cc1` [Example 19, 4,6-dichloro-2-(4-(ethylsulfonyl)benzyl)-5-(2-(2-methoxyethoxy)phenyl)-1H-benzo[d]imidazole] are 0.052 µM and 0.343 µM.
For `NC(=O)CC(c1ccc(S(=O)(=O)CC2CC2)cc1)c1nc2cc(Cl)c(-c3ccccc3OC(F)F)c(Cl)c2[nH]1` (stereo not drawn) [Example 158, 3-(4-((cyclopropylmethyl)sulfonyl)phenyl)-3-(5,7-dichloro-6-(2-(difluoromethoxy)phenyl)-1H-benzo[d]imidazol-2-yl)propanamide] the same measures were 0.005 µM and 0.187 µM.
On to `CS(=O)(=O)c1ccc(C(CO)c2nc3c(Cl)c(-c4ccccc4C(F)(F)F)c(Cl)cc3[nH]2)cc1` (stereo not drawn) [Example 46, 2-(4,6-dichloro-5-(2-(trifluoromethyl)phenyl)-1H-benzo[d]imidazol-2-yl)-2-(4-(methylsulfonyl)phenyl)ethanol], for which the IC50 in test [2] is 0.048 µM; in test [1] (Homo sapiens, PBMC, 72 h) it was 0.018 µM.
The compound `NC(=O)CC(c1ccc(S(=O)(=O)CC2CC2)cc1)c1nc2cc(Cl)c(N3CCC(F)(F)CC3)c(Cl)c2[nH]1` (single isomer, unassigned) [the shorter retention time of 162 and 163] [3-(4-((cyclopropylmethyl)sulfonyl)phenyl)-3-(5,7-dichloro-6-(4,4-difluoropiperidin-1-yl)-1H-benzo[d]imidazol-2-yl)propanamide] displayed an IC50 in test [1] of 0.069 µM.
The same measure, in the same setting: in the case of `CC(C)Oc1ccccc1-c1cc2nc(C(CCO)c3ccc(S(=O)(=O)CC4CC4)cc3)[nH]c2cc1Cl` (single isomer, unassigned) [the shorter retention time of 150 and 151] [3-(6-chloro-5-(2-isopropoxyphenyl)-1H-benzo[d]imidazol-2-yl)-3-(4-((cyclopropylmethyl)sulfonyl)phenyl)propan-1-ol] it was 0.718 µM.
`O=S(=O)(CC1CC1)c1ccc(C(CCO)c2nc3cc(-c4ccccc4OC(F)F)c(Cl)cc3[nH]2)cc1` (single isomer, unassigned) [the shorter retention time of 155 and 156] [3-(6-chloro-5-(2-(difluoromethoxy)phenyl)-1H-benzo[d]imidazol-2-yl)-3-(4-((cyclopropylmethyl)sulfonyl)phenyl)propan-1-ol] returned an IC50 in test [1] of 0.135 µM.
In turn, `CCS(=O)(=O)c1ccc(C(CCO)c2nc3c(Cl)c(N4CCC(F)(F)CC4)c(Cl)cc3[nH]2)cc1` (single isomer, unassigned) [the shorter retention time of 139 and 140] [3-(4,6-dichloro-5-(4,4-difluoropiperidin-1-yl)-1H-benzo[d]imidazol-2-yl)-3-(4-(ethylsulfonyl)phenyl)propan-1-ol] had a half-maximal inhibitory concentration (IC50) in test [1] of 0.214 µM.
Still for that read-out and setting: in the case of `CC(C)Oc1ccccc1-c1cc2nc(C(CC(N)=O)c3ccc(S(=O)(=O)CC4CC4)cc3)[nH]c2cc1Cl` (single isomer, unassigned) [the shorter retention time of 148 and 149] [3-(6-chloro-5-(2-isopropoxyphenyl)-1H-benzo[d]imidazol-2-yl)-3-(4-((cyclopropylmethyl)sulfonyl)phenyl)propanamide] it was 0.555 µM; in that of `NC(=O)CC(c1ccc(S(=O)(=O)CC2CC2)cc1)c1nc2cc(-c3ccccc3OC(F)F)c(Cl)cc2[nH]1` (single isomer, unassigned) [the shorter retention time of 152 and 153] [3-(6-chloro-5-(2-(difluoromethoxy)phenyl)-1H-benzo[d]imidazol-2-yl)-3-(4-((cyclopropylmethyl)sulfonyl)phenyl)propanamide], 0.86 µM.
For `O=S(=O)(CCF)c1ccc(Cc2nc3c(Cl)c(-c4ccccc4OC(F)(F)F)c(Cl)cc3[nH]2)cc1` [Example 61, 4,6-dichloro-2-(4-((2-fluoroethyl)sulfonyl)benzyl)-5-(2-(trifluoromethoxy)phenyl)-1H-benzo[d]imidazole], the IC50 in test [2] was 0.509 µM.
`O=S(=O)(CCF)c1ccc(Cc2nc3c(Cl)c(-c4ccccc4C(F)(F)F)c(Cl)cc3[nH]2)cc1` [Example 63, 4,6-dichloro-2-(4-((2-fluoroethyl)sulfonyl)benzyl)-5-(2-(trifluoromethyl)phenyl)-1H-benzo[d]imidazole] registered a half-inhibitory concentration (IC50) in test [2] of 0.592 µM.
Still for that read-out and setting: the figure for `CCOc1ccccc1-c1c(Cl)cc2[nH]c(C(O)c3ccc(S(=O)(=O)CC)cc3)nc2c1Cl` (stereo not drawn) [Example 18, (4,6-dichloro-5-(2-ethoxyphenyl)-1H-benzo[d]imidazol-2-yl)(4-(ethylsulfonyl)phenyl)methanol] is 0.013 µM; for `CS(=O)(=O)c1ccc(Cc2nc3c(Cl)c(-c4ccccc4OC(F)(F)F)c(Cl)cc3[nH]2)cc1` [Example 56, 4,6-dichloro-2-(4-(methylsulfonyl)benzyl)-5-(2-(trifluoromethoxy)phenyl)-1H-benzo[d]imidazole] it is 0.879 µM.
